For orientation: IC90 means the concentration at which the effect reaches the 90% level. Read a low IC90 as an effect from little substance.

We go through 11 compounds from paper PMC8959600 (eLife, 2022).

Each structure is given as a SMILES string. Converted amounts (≈) assume the structure as drawn. A value given as a limit tells only on which side of the number the result lay.

Data set [1] concerns S. flexneri 2457T. Put plainly: microbe, parasite or virus in culture. The data set is classed as cell-based, Shigella flexneri. The note with it: Shigella flexneri, 2457T. The procedure: Bacterial inoculum without drug was used as positive control. The bacteria inoculum (1 × 10^5 CFU/mL) for the assay was prepared by diluting a log phase incubated at 37 °C for 3–4 hr. Mueller Hinton agar plates were prepared containing 4xMIC and 10xMIC and inoculated with different concentrations of bacteria (1 × 10^9, 1 × 10^8, and 1 × 10^7 CFU/mL). Plates were prepared in duplicate and incubated overnight at 37 °C. The frequency of spontaneous resistant mutants was calculated by using the formula: FoR = resistant CFUs/inoculum CFUs. The mean of the two plates was reported.

Data set [2] concerns Shigella flexneri 2457T. Briefly: Resazurin growth inhibition, dose response (IC50/IC90) in Müller Hinton medium. The note with it: ATCC700930. The data set is classed as cell-based. The procedure:
We developed a high-throughput screening (HTS) method to identify compounds that could inhibit the growth of Shigella flexneri 2457T in Müller Hinton medium (Sigma Aldrich, UK). We adapted a resazurin reduction protocol from Franzblau et al. as surrogate readout for bacterial viability because it provided a stable signal, a low interference level, and was cost effective ([Franzblau et al., 1998]). Prior to the day of experimentation, one colony was used to inoculate 50 mL Mueller Hinton medium, and the culture was incubated overnight at 37 °C. The next day, 500 μL of the bacterial culture were inoculated into 50 mL fresh Mueller Hinton medium and bacterial growth was measured periodically at 600 nm. When the culture reached OD = 0.4–0.6, the inoculum was diluted to 1 × 10^6 CFU/mL; this bacterial suspension was added to compound pre-dispensed plates for screening.
The assay was performed in 1536-well polystyrene assay plates (HiBase, μClear, Greiner Bio‐One) and used to screen ~1.7 million compounds from (a) GSK naïve chemical diversity, (b) GSK antibacterial programs, and (c) marketed antimicrobial agents. All commercially available chemicals were purchased from either Sigma Aldrich, UK, AK Scientific, or Fischer Chemicals. The GSK compound screening set was sub-selected from the 8 million compound GSK collection using the principles described by Harper and co-workers ([Harper et al., 2004]). The process to generate the structural filters to remove compounds bearing undesirable/reactive chemotypes and/or non-developable physicochemical properties has been described previously by [Chakravorty et al., 2018]. […]. The set of marketed antibacterial agents included most commercial antimicrobial agents.
For screening, plates were prepared by dispensing 50 nl of compound from master plates at 1 mM in each well using a LabCyte Echo system. The final assay volume was 5 μl and the final compound concentration was 10 µM. The 11th and 12th columns were growth controls containing 50 nL of DMSO. The 34th and 35th columns contained 50 nL of Moxifloxacin at 20 μM as negative growth controls. Five µl of bacterial inoculum was dispensed into compound pre-dispensed plates using a Multidrop Combi dispenser (Thermo Scientific). Plates were agitated for 10 s to ensure mixing and incubated at 37 °C overnight (16–17 hr). Following overnight culture, 2 µl resazurin solution (Resazurin tablets for milk testing, BDH) was added to each well and incubated at room temperature in the dark for 3 hr. Fluorescence intensity was measured using an Envision plate reader (PerkinElmer). […] Data were analysed using Base software and statistical cut-off analysis was used for ‘hit’ selection following a standard GSK protocol. To calculate the statistical cut-off, percentage growth inhibition was calculated per well according to the plate controls, these values were aggregated to calculate the robust mean and standard deviation (SD) of the distribution. The robust mean was calculated starting from the median and the MAD of the distribution with an iterative process that aimed to remove outliers. Once the mean and SD were calculated, all compounds above mean + 3 SD were selected as primary hits.
After the initial screen, we generated fresh samples of the primary compound hits and tested them in duplicate against S. flexneri 2457T at 10 μM to confirm activity. The confirmed hit list was narrowed by applying the following filters: a 30% cut-off value, absence of undesirable structural features (e.g. electrophiles, peroxides, and Michael acceptors) and reduced physicochemical risk (maximum five aromatic rings and PFI <8)([Leeson and Young, 2015]). […].
(Alamar Blue is a resazurin reagent that responds to reducing activity.)

Data set [3] has as its system S. flexneri 2457T. The data set is classed as in vivo. The note with it: mice, 40 mg/kg PO, 24 hr post infection, limit of quantification 80.
Data set [4] deals with S. flexneri EG478. Briefly: Solid medium test at 10 µM and dose-response MIC against MDR clinical isolate. Type of data set: cell-based, Shigella flexneri. Conditions: for bactericidal activity: MDR clinical isolate S. flexneri EG478; for MIC range: range over S. flexneri EG478 and S. sonnei 02-1181. The procedure:
(§1) The confirmed hit list was narrowed by applying the following filters: a 30% cut-off value, absence of undesirable structural features (e.g. electrophiles, peroxides, and Michael acceptors) and reduced physicochemical risk (maximum five aromatic rings and PFI <8)([Leeson and Young, 2015]). […] Briefly, the selected bacteria were cultured on the Luria-Bertani agar overnight at 37 °C (Campylobacter isolates were grown in 2.5% Laked Horse Blood cation-adjusted Mueller Hinton medium (CAMHB, Sigma Aldrich) and incubated in microaerophilic conditions (10% CO2, 5% O2 and 85% N2) at 42 °C); colonies were added to sterile PBS to form 0.5 McFarland solutions. All chemical testing was performed at an initial concentration of 10 μM. Bacterial suspensions were evenly spread on Mueller-Hinton agar by sterile cotton swabs (Medical Wire – MWE). […] Plates were incubated overnight at 37 °C. The activity of the chemical was recorded as being active (yes) or non-active (no) for each of the tested chemicals.
(§2) MICs were evaluated using the micro dilution assay in Müller Hinton broth using 1 mM chemical stock solutions, and a final concentration of 5 × 10^5 CFU/mL bacteria. Twofold serial dilutions were prepared in 96-well plates at concentration ranging from 1 μM to 7.8 nM. 100 μL bacteria were added and incubated at 37 °C overnight; 10 μl of each solution was dropped onto Luria-Bertani agar and incubated overnight at 37 °C for the detection of bacterial growth. Results were interpreted as minimal concentration necessary to inhibit growth.

Data set [5] deals with S. sonnei 02–1181. The data set is described as above. Type of data set: cell-based, Shigella sonnei. The procedure:
as §1, §2

Data set [6] can be described thus: Intestinal distribution by MALDI imaging in mice. The data set is classed as in vivo. The procedure: One animal was euthanised at 0.25, 0.5, 1, and 4 hr respectively and 2.5–3 cm sections of the intestine (duodenum, jejunum, ileum, caecum, and colon) were collected and frozen at –80 °C. For quantitative LCMS analysis of intestine homogenate, samples were thawed at ambient temperature, mixed with water (1:1) and homogenised by turrax (10 sec). Subsequently, 20 µL of homogenate were mixed with 200 µl of ACN: MeOH (80:20) and filtered using 0.2 µm filter plate (Whatman). LCMS analysis was performed as described in previous section. For MALDI imaging, 50 mm of the central part of each intestinal section were cut and mounted in a sample disc on dry ice with a solution of 1% methylcellulose (Sigma Aldrich, UK). Next, tissue sections of 12 µm (sagital sections) were obtained using a cryostat (Leica CM3600; Leica Microsystems Inc, Wetzlar, Germany) at –20 °C and collected in conductive-coated slides for MALDI Imaging (Bruker Daltonic). After the ‘MALDI’ section was obtained a consecutive section for histology was taken. Prior to matrix coating, samples for MALDI were optical scanned in a PathScanner. The matrix deposition was conducted in a sprayer ImagePrep System (Bruker Daltonic) which uses vibrational vaporisation technology. As matrix solution α-CHCA (α-Cyano-4-hydroxycinnamic acid (Sigma Aldrich) dissolved in 70:30 methanol/water (v/v) containing 0.2% TFA at 7 mg/mL was used. MALDI MSI data were obtained using a Bruker UltrafleXtream MALDI TOF/TOF (Bruker Daltonic, Germany)).
Both compounds were analysed in positive mode using a LIFT method. For Tebipenem, parent compound was 384.32 and the detection mass window between m/z 0–400. 298.164 were the most intensive fragment. […] We used a laser shut at 85% power with a 50 μm step size, 100 times at raster spot in random wak mode. FlexImaging 4.1(bruker Daltoninc, Germany) were used for the data visualisation. […]
MALDI Imaging is not a quantitative technique, therefore, the colour scale of images is relative to the maximum intensity (100 corresponds with the maximal signa in each slide). […]

The subject of data set [7] is S. flexneri 2457T. Put plainly: Gnotobiotic piglet Shigella infection model, efficacy. The data set is classed as in vivo. Conditions: piglets.

For `CC1(C)S[C@@H]2[C@H](NC(=O)[C@H](N)c3ccccc3)C(=O)N2[C@H]1C(=O)O` [Ampicilin], the MIC in data set [1] is 7.5 µM (≈ 2.62 µg/mL).

As to `CC[C@H]1OC(=O)[C@H](C)[C@@H](O[C@H]2C[C@@](C)(OC)[C@@H](O)[C@H](C)O2)[C@H](C)[C@@H](O[C@@H]2O[C@H](C)C[C@H](N(C)C)[C@H]2O)[C@](C)(O)C[C@@H](C)CN(C)[C@H](C)[C@@H](O)[C@]1(C)O` [Azithromycin], the 90% effect concentration (IC90) in data set [2] is 7.49 µg/mL (≈ 10 µM).

In the case of `CO/N=C(\C(=O)N[C@@H]1C(=O)N2C(C(=O)O)=C(CSc3nc(=O)c(=O)[nH]n3C)CS[C@H]12)c1csc(N)n1` [Ceftriaxone], in data set [2], the 90% effect level (IC90) was put at 0.067 µg/mL (≈ 0.121 µM). In addition, the MIC in data set [1] is 0.2 µM (≈ 0.111 µg/mL).

In the case of `O=C(O)c1cn(C2CC2)c2cc(N3CCNCC3)c(F)cc2c1=O` [Ciprofloxacin], it took 0.02 µg/mL (≈ 0.0604 µM) to reach the 90% level in data set [2] (IC90). The compound also came in with an MIC in data set [1] of 0.06 µM (≈ 0.0199 µg/mL). Further, the “S. flexneri CFUs in gastrointestinal tissue” value in data set [3] is less than 80 CFU.

On to `C[C@@H](O)[C@H]1C(=O)N2C(C(=O)O)=C(S[C@@H]3CN[C@H](C(=O)Nc4cccc(C(=O)O)c4)C3)[C@H](C)[C@H]12` [Ertapenem], for which, in data set [4], the bactericidal activity entry was “greatest bactericidal activity” and the MIC range was in the range of 0.04 to 0.15 µg/mL. In addition, the bactericidal activity entry in data set [5] is listed as “greatest bactericidal activity”.

Consider `C[C@@H](O)[C@H]1C(=O)N2C(C(=O)O)=C([C@H]3CCCO3)S[C@H]12` [Faropenem], for which the MIC range in data set [4] lay in the range of 2.5 to 6.25 µg/mL.

Take `CC1(C)S[C@@H]2[C@H](/N=C/N3CCCCCC3)C(=O)N2[C@H]1C(=O)O` [Mecillinam]: in data set [2], the 90% effect level (IC90) was put at 0.058 µg/mL (≈ 0.178 µM). In addition, the MIC in data set [1] was 0.2 µM (≈ 0.0651 µg/mL).

In the case of `C[C@@H](O)[C@H]1C(=O)N2C(C(=O)O)=C(S[C@@H]3CN[C@H](C(=O)N(C)C)C3)[C@H](C)[C@H]12` [Meropenem], the bactericidal activity result in data set [4] and in data set [5] was “greatest bactericidal activity” throughout. In data set [4], the MIC range came to 0.15 µg/mL (≈ 0.391 µM).

`COc1c(N2C[C@@H]3CCCN[C@@H]3C2)c(F)cc2c(=O)c(C(=O)O)cn(C3CC3)c12` [Moxifloxacin] had an MIC in data set [1] of 0.2 µM (≈ 0.0803 µg/mL).

In the case of `CO[C@H]1/C=C/O[C@@]2(C)Oc3c(C)c(O)c4c(O)c(c(/C=N/N5CCN(C)CC5)c(O)c4c3C2=O)NC(=O)/C(C)=C\C=C\[C@H](C)[C@H](O)[C@@H](C)[C@@H](O)[C@@H](C)[C@H](OC(C)=O)[C@@H]1C` [Rifampicin], in data set [1], the MIC turned out to be 3.7 µM (≈ 3.04 µg/mL).

Consider `C[C@@H](O)[C@H]1C(=O)N2C(C(=O)OCOC(=O)C(C)(C)C)=C(SC3CN(C4=NCCS4)C3)[C@H](C)[C@H]12` [Tebipenem pivoxil], for which the “MALDI detection in the intestinal lumen” value in data set [6] (60 min after oral pro-drug) was “not detectable in the lumen”. The “MALDI detection within enterocytes” value in data set [6] (after oral pro-drug) was “not detected within enterocytes”. The “histopathology of the large intestine vs placebo” value in data set [7] (day six post infection) is “marked reduction in intestinal lesions and inflammation”. The “CFU/g Shigella in stool” value in data set [7] (single dose given 24 hr after infection, from 1 × 10^7, within 24 hr) is “zero”.
